System: DYT1 knockin (Tor1a^delGAG/+) murine embryonic fibroblasts (MEFs)
Test: microRNA-seq of EVs from DYT1 MEFs treated with drug, compared with non-treated DYT1 MEFs
Format: cell-based, mouse
Conditions: for Sal Direction Opposite ISRIB?: EVs of DYT1 (Het) MEFs
Experimental: In addition to proteomic analysis, total RNA-seq and microRNA-seq was performed on RNA isolated in parallel from the EV samples of Cohort 2. As with the proteomic analysis, one biological replicate was prepared from 3 distinct biological clonal cell lines for each genotype. Here, EVs were isolated from conditioned cell culture media by 18 hour ultracentrifugation at 100,000 g. RNA was extracted using the Qiagen miRNeasy Micro Kit (Cat. No. 217084) according to the manufacturer's protocol. Two RNA fractions were extracted from each sample, one enriched in coding and non-coding RNA species>200 nt (“Total RNA” fraction) and one enriched for small RNAs<200 nt (“miRNA” fraction). RNA samples were then submitted to the Duke Sequencing and Genomic Technologies shared resource for further quality control and sequencing. Samples were assessed for concentration and integrity by Qubit and Fragment Analyzer. The miRNA fractions were 4.16 ng/μL-47.57 ng/μL and total RNA fractions were 3.8 ng/μL-43.6 ng/μL. The small RNA library was prepared using the QIAseq miRNA Library Kit (Cat No./ID: 331505) and sequenced on the Illumina NextSeq 500 High-Output platform with 75 bp single-reads. The total RNA library was prepared using the Illumina TruSeq Stranded Total RNA-seq Kit with Ribozero Gold ribosomal RNA reduction and sequenced on the Illumina NovaSeq 6000 S1 platform with 100 bp paired-end reads. Sequencer lane pooling and read depth are attached in the Excel data summary (See “RNA QC” Tab). Data processing and analysis were performed in collaboration with the Duke Genomic Analysis and Bioinformatics shared resource. RNA-seq data was processed using the TrimGalore toolkit (http://www.bioinformatics.babraham.ac.uk/projects/trim_galore), which employs Cutadapt(Martin M. (2011) EMBnet.journal. 17(1):10-12) to trim low quality bases and Illumina sequencing adapters from the 3' end of the reads. Only reads that were 20 nt or longer after trimming were kept for further analysis. Reads were mapped to the mouse genome and transcriptome ([…], et al. (2012) Nucleic Acids Res. 40(Database issue):[…]-97) using the STAR RNA-seq alignment tool (Dobin A, et al. (2013). Bioinformatics. 29(1):15-21). If the reads mapped to a single genomic location, then they were kept for subsequent analysis. Gene counts were compiled using the HTSeq tool (http://www-huber.embl.de/users/anders/HTSeq/). Only genes that had at least 10 reads in any given library were used in subsequent analysis. Normalization and differential expression was carried out using the DESeq26 Bioconductor (Huber W, et al. (2015) Nat Methods. 12(2):115-121) package with the R statistical programming environment (www.r-project.org). […] 694 miRNAs were initially examined with respect to QC, genotype, RTV effects, and ISRIB effects. This subset was the “Full miRNA” subset. FIG. 9A and FIG. 9B show the RTV effect on EV composition in DYT1 cells compared to WT cells for 279 miRNAs, respectively. […] Beginning with the 694 miRNAs in the “Full miRNA” subset, more than 60 molecules were detected in either WT cells or DYT1 cells (WT or Het UMI>60). […] The candidate miRNAs were ranked by the sum of genotype-dependent absolute Z-scores and RTV-induced absolute Z-scores (Abs Z Score Sum (Geno+RTV)). This subset was the “miRNA-Ritonavir Therapeutic Efficacy” subset and contained 201 miRNAs.

[1] = SAL-treated vs non-treated DYT1 (Het) MEF EVs

O=C(/C=C/c1ccccc1)NC(NC(=S)Nc1cccc2cccnc12)C(Cl)(Cl)Cl (centres unmarked) [SAL, Salubrinal]
mmu-miR-147-5p: SALvHet Z Score [1]: −0.16 | mmu-miR-181a-1-3p: SALvHet Z Score [1]: −0.12 | mmu-miR-181a-1-3p: Sal Direction Opposite ISRIB? [1]: yes | mmu-miR-331-5p: SALvHet Z Score [1]: 0.66 | mmu-miR-668-3p: SALvHet Z Score [1]: 0.34 | mmu-miR-1930-5p: SALvHet Z Score [1]: −1.60 | mmu-miR-1943-5p: SALvHet Z Score [1]: −0.08 | mmu-miR-1955-5p: SALvHet Z Score [1]: 1.06 | mmu-miR-3072-5p: SALvHet Z Score [1]: 0.00 | mmu-miR-3076-3p: SALvHet Z Score [1]: 0.00 | mmu-miR-3088-3p: SALvHet Z Score [1]: −1.34 | mmu-miR-6936-3p: SALvHet Z Score [1]: −0.71 | mmu-miR-6936-3p: Sal Direction Opposite ISRIB? [1]: yes | mmu-miR-7224-3p: SALvHet Z Score [1]: 0.30 | mmu-miR-7224-3p: Sal Direction Opposite ISRIB? [1]: yes | mmu-miR-467d-3p: SALvHet Z Score [1]: −0.01 | SALvHet Z Score (mmu-let-7a-1-3p): 0.28 | SALvHet Z Score (mmu-let-7c-2-3p): 0.28 | SALvHet Z Score (mmu-let-7g-5p): −0.16 | SALvHet Z Score (mmu-let-7i-3p): 0.35 | Sal Direction Opposite ISRIB? (mmu-miR-30e-5p): yes | SALvHet Z Score (mmu-miR-30e-3p): −0.06 | SALvHet Z Score (mmu-miR-15a-5p): 0.17 | SALvHet Z Score (mmu-miR-16-5p): −0.01 | SALvHet Z Score (mmu-miR-17-3p): 0.10 | Sal Direction Opposite ISRIB? (mmu-miR-19b-3p): yes | SALvHet Z Score (mmu-miR-22-3p): 0.17 | Sal Direction Opposite ISRIB? (mmu-miR-22-3p): yes | SALvHet Z Score (mmu-miR-23a-3p): 0.05 | SALvHet Z Score (mmu-miR-25-3p): −0.04 | Sal Direction Opposite ISRIB? (mmu-miR-26b-Sp): yes | SALvHet Z Score (mmu-miR-29b-3p): 0.38 | SALvHet Z Score (mmu-miR-29c-3p): 0.40 | SALvHet Z Score (mmu-miR-30a-5p): −0.09 | SALvHet Z Score (mmu-miR-30b-5p): 0.15 | SALvHet Z Score (mmu-miR-30c-5p (1st line so named)): 0.42 | SALvHet Z Score (mmu-miR-30c-5p (2nd line so named)): 0.07 | Sal Direction Opposite ISRIB? (mmu-miR-30c-5p): yes | SALvHet Z Score (mmu-miR-31-3p): −0.03 | SALvHet Z Score (mmu-miR-31-5p): −0.14 | SALvHet Z Score (mmu-miR-32-5p): 0.26 | SALvHet Z Score (mmu-miR-33-5p): 0.26 | SALvHet Z Score (mmu-miR-34a-5p): −0.03 | SALvHet Z Score (mmu-miR-34b-5p): 0.38 | SALvHet Z Score (mmu-miR-34c-3p): −0.37 | SALvHet Z Score (mmu-miR-34c-5p): 0.07 | Sal Direction Opposite ISRIB? (mmu-miR-34c-5p): yes | SALvHet Z Score (mmu-miR-96-5p): 0.13 | Sal Direction Opposite ISRIB? (mmu-miR-96-5p): yes | SALvHet Z Score (mmu-miR-98-5p): −0.22 | SALvHet Z Score (mmu-miR-99a-5p): −0.17 | SALvHet Z Score (mmu-miR-101b-3p): 0.64 | SALvHet Z Score (mmu-miR-106b-3p): −0.23 | SALvHet Z Score (mmu-miR-106b-5p): 0.04 | SALvHet Z Score (mmu-miR-124-3p): −0.72 | SALvHet Z Score (mmu-miR-125b-1-3p): −0.41 | SALvHet Z Score (mmu-miR-130b-3p): 0.32 | Sal Direction Opposite ISRIB? (mmu-miR-130b-3p): yes | Sal Direction Opposite ISRIB? (mmu-miR-135a-5p): yes | SALvHet Z Score (mmu-miR-136-3p): 0.08 | SALvHet Z Score (mmu-miR-140-3p): 0.50 | Sal Direction Opposite ISRIB? (mmu-miR-140-3p): yes | SALvHet Z Score (mmu-miR-146a-5p): 0.02 | SALvHet Z Score (mmu-miR-148a-3p): −0.02 | SALvHet Z Score (mmu-miR-148b-3p): −0.07 | SALvHet Z Score (mmu-miR-149-5p): 0.03 | SALvHet Z Score (mmu-miR-151-5p): 0.12 | SALvHet Z Score (mmu-miR-152-3p): −0.02
